We go through two compounds from ChEMBL document CHEMBL5346945, “Discovery and Optimization of the First ATP Competitive Type-III c-MET Inhibitor” (J Med Chem, 2023).

Data set [1] addresses T1, Hepatocyte growth factor receptor (Homo sapiens, UniProt P08581). The data set can be described thus: Inhibition of wild type c-MET (unknown origin) using ATP and poly(L-glutamic acid-L-tyrosine) as substrate incubated for 60 mins measured by ADP-Glo kinase assay.
Data set [2] addresses T2, Tyrosine-protein kinase Mer (Homo sapiens) (UniProt Q12866).
T2 sequence (whole entry): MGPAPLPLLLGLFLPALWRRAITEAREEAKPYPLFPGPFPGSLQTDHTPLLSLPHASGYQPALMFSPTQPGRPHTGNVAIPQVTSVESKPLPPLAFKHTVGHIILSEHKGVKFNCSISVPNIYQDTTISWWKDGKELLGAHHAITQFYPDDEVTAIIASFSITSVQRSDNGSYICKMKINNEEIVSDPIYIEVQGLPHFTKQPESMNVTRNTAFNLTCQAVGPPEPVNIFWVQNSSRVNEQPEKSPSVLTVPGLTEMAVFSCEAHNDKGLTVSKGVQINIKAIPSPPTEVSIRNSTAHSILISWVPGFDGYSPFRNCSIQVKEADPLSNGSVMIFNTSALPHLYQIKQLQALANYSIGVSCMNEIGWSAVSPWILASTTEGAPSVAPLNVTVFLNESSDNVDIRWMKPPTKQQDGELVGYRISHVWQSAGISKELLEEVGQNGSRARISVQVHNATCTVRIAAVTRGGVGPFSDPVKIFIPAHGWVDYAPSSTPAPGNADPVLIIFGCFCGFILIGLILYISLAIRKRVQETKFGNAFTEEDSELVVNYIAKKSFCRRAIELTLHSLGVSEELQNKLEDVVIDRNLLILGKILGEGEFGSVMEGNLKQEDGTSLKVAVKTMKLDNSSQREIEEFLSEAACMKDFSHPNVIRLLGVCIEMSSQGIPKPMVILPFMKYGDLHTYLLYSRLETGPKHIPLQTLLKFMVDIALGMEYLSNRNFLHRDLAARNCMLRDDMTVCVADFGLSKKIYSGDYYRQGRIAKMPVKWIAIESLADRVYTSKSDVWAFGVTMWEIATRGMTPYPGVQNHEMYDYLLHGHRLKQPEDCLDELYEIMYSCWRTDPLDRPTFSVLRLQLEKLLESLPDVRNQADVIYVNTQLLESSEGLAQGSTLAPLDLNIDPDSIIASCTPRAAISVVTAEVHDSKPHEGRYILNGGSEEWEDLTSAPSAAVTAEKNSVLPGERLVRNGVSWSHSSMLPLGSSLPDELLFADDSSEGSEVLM
Particulars: dose 100.0 nM.
Description: Inhibition of MERTK (unknown origin) at 100 nM relative to control

A short description of data set [3]: Metabolic stability in human liver microsomes assessed as intrinsic clearance at 1 uM preincubated with NADPH for 8 mins followed by compound addition measured at 0.5 to 30 mins by LC-MS/MS analysis. The class given is ADME, Microsome. Particulars: time 0.5-30 min, read-out: CLH. (In general: Liver microsomes are a subcellular fraction often used to study metabolism.)

The target of data set [4] is T1, Hepatocyte growth factor receptor. Conditions: dose 100.0 nM.
Description: Inhibition of c-MET (unknown origin) at 100 nM relative to control
For data set [5] the target is unchanged. Put plainly: Inhibition of wild type c-MET in human NCI-H1993 cells incubated for 4 hrs measured by HTRF assay. The format is cell-based. A general note: In TR-FRET formats the signal depends on donor and acceptor labels being close together.
Data set [6] in a line: Lipophilicity, logD of compound in octanol and water at pH 7.4 measured by shake-flask method. The class given is physicochemical.
Data set [7] has as its target Macrophage-stimulating protein receptor (Homo sapiens) (UniProt Q04912). Conditions: dose 100.0 nM.
Description: Inhibition of MST1R (unknown origin) at 100 nM relative to control
A short description of data set [8]: Metabolic stability in Han Wistar rat hepatocytes assessed as intrinsic clearance measured per million cells at 1 uM measured at 0.5 to 2 hrs by LC-MS/MS analysis. Particulars: time 0.5-2 hrs, read-out: CLH. The format is ADME, cell-based, Hepatocyte.
Data set [9] addresses Tyrosine-protein kinase receptor UFO (Homo sapiens) (UniProt P30530). Particulars: dose 100.0 nM.
Description: Inhibition of AXL (unknown origin) at 100 nM relative to control
In data set [10] the target is T3, Tyrosine-protein kinase receptor TYRO3 (Homo sapiens) (UniProt Q06418).
T3 sequence (whole entry): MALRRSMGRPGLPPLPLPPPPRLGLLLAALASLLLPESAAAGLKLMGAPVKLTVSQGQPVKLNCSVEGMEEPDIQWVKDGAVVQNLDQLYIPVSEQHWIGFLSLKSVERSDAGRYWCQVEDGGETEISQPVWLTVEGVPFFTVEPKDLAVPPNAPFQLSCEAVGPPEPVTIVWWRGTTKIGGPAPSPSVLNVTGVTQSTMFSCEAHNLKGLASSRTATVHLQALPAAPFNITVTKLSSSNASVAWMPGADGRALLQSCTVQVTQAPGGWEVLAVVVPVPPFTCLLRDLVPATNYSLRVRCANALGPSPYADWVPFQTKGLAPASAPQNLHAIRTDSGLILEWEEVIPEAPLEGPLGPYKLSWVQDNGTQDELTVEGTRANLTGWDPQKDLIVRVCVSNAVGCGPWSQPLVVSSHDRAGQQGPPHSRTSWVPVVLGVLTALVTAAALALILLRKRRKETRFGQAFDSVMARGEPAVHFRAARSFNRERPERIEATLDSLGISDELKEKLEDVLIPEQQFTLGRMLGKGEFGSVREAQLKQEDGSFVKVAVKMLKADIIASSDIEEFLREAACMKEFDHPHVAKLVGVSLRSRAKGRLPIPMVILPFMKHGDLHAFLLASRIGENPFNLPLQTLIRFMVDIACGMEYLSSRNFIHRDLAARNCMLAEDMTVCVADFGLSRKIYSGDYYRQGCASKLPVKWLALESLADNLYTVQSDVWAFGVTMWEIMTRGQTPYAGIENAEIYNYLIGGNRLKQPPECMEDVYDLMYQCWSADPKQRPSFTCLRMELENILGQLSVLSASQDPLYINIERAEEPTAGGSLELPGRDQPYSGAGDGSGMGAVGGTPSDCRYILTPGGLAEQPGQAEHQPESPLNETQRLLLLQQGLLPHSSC
Conditions: dose 100.0 nM.
Description: Inhibition of TYRO3 (unknown origin) at 100 nM relative to control

T1 sequence (P08581 whole entry): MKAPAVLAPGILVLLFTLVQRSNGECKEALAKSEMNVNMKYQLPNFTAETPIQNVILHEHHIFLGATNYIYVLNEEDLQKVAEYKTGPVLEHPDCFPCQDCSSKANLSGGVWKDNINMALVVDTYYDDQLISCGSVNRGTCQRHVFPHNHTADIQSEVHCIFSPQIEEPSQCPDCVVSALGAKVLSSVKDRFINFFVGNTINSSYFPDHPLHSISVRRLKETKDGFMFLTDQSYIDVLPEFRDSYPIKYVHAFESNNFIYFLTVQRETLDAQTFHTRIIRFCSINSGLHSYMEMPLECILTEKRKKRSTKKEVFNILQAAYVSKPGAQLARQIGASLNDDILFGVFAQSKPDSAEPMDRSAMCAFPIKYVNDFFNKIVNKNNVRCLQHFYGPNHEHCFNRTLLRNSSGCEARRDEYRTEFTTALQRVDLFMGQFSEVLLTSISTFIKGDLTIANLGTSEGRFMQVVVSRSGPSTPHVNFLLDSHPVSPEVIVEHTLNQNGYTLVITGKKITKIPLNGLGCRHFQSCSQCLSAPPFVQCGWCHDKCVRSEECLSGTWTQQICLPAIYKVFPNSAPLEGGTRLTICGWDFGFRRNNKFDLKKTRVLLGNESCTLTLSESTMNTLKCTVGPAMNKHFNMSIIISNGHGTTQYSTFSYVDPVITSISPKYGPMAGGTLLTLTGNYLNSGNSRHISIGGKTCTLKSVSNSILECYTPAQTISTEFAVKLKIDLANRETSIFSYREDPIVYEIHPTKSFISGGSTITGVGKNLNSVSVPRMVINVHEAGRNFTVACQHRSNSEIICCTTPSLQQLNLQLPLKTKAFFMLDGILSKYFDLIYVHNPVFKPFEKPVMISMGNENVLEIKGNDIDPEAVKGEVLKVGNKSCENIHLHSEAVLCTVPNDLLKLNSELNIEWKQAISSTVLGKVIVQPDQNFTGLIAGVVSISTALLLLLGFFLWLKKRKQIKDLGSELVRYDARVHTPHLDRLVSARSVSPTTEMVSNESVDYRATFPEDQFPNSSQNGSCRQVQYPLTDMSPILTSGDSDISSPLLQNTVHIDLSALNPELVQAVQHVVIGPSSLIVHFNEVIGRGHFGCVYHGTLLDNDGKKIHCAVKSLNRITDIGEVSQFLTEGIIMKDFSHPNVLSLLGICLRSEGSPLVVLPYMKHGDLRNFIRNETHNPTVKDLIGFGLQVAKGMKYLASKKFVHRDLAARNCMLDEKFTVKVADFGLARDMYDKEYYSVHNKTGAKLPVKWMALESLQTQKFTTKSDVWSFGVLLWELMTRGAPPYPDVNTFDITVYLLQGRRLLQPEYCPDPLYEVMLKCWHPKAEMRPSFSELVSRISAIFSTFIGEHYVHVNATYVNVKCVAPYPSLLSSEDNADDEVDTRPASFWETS
Chain of Macrophage-stimulating protein receptor (Homo sapiens) (Q04912 25-304 limits assumed): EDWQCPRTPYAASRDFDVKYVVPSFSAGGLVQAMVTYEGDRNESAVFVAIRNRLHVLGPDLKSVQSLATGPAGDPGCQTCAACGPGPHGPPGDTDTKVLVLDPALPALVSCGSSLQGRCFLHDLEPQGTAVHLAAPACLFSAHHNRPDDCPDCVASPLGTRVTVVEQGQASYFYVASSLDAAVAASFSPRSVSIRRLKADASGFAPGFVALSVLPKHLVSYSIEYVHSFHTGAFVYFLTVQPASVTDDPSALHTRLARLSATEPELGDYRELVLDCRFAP
Chain of Macrophage-stimulating protein receptor (Homo sapiens) (Q04912 310-1400 limits assumed): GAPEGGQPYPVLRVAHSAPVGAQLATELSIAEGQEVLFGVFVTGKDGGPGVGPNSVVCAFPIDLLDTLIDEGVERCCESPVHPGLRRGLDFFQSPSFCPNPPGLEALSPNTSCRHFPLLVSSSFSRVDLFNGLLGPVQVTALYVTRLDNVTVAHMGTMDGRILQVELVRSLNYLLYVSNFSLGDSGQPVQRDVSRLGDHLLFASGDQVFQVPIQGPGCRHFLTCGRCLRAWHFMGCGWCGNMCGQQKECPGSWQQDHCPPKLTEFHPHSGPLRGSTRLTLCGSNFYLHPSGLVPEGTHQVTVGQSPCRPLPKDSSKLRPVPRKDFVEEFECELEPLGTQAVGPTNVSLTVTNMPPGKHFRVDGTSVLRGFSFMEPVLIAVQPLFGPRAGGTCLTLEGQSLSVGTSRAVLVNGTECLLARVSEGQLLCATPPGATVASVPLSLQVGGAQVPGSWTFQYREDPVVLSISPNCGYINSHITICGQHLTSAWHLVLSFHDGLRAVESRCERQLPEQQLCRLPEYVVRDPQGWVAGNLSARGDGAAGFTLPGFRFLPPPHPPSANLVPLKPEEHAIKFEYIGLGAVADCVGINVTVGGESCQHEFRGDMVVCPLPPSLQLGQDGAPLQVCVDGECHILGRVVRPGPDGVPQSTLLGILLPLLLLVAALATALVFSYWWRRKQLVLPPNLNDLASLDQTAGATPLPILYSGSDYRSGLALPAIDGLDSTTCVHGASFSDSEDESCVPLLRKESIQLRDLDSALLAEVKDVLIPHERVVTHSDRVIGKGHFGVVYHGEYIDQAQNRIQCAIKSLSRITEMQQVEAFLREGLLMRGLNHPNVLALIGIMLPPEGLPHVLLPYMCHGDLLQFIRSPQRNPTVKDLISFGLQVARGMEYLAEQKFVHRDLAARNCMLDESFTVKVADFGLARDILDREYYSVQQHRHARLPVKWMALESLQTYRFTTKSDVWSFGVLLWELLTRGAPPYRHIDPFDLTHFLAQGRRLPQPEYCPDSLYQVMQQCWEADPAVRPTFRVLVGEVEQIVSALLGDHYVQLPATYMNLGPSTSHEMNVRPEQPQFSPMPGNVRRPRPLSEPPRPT
Chain of Tyrosine-protein kinase receptor UFO (Homo sapiens) (P30530 whole entry): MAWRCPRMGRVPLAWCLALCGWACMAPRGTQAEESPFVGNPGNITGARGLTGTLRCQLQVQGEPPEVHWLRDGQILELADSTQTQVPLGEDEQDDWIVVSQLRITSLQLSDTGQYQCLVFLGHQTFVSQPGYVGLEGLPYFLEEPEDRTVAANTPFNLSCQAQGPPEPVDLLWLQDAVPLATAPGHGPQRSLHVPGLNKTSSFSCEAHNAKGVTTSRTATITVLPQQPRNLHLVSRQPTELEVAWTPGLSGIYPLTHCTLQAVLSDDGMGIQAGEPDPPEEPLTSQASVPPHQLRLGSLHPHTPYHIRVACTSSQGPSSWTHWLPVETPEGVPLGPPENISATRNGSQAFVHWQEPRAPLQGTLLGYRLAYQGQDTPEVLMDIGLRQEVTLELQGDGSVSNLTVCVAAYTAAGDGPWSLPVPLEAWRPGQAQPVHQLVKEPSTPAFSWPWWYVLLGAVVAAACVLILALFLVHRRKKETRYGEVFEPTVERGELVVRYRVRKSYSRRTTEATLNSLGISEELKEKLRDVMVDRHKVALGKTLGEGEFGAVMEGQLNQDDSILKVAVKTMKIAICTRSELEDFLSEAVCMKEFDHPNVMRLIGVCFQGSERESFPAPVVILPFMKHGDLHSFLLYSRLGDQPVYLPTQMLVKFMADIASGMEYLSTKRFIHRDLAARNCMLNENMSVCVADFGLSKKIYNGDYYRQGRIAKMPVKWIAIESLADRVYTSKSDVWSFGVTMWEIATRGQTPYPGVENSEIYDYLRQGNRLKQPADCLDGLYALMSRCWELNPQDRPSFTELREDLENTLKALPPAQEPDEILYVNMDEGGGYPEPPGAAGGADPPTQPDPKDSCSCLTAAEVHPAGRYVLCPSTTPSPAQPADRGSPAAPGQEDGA

For orientation: IC50 means the concentration needed to halve the response being measured. Lower therefore signals greater potency in that assay. As a reminder, the inhibition is the drop in the measured response relative to a control, in per cent. Read a low inhibition as a weak effect. The EC50 is the concentration at which the effect is half-maximal. As usually defined, the logD is lipophilicity at a set pH, counting ionised and neutral species. High values mean higher lipophilicity, low ones lower lipophilicity. With `C#Cc1n[nH]c2c(-c3cn([C@@H](C)c4ccccc4)c(=O)[nH]c3=O)cc(F)cc12`, the IC50 in data set [1] turned out to be 13 nM. For the same compound, the inhibition in data set [2] was 80%; in [4] it was 80%; in data set [7], less than 50%; in data set [9], less than 50%. Moreover, the microsomal CLint at 1 µM in data set [3] was less than 3 µL/min/mg. For the same compound, the EC50 in [5] amounted to 1170 nM. In data set [6], this compound registered a log distribution coefficient (logD) of 3.4. Besides, in data set [8], the hepatocyte CLint at 1 µM was 15 µL/min/1e6 cells.
In data set [1], `C#Cc1n[nH]c2c(-c3cn([C@@H](C)c4ccccn4)c(=O)[nH]c3=O)cc(F)cc12` came in with an IC50 of 16 nM. In addition, the inhibition in [2] is 75.3%; in data set [4] it was 80%; in data set [7] it was less than 50%; in data set [10], less than 50%. Besides, the microsomal CLint at 1 µM in data set [3] amounted to 18 µL/min/mg. In data set [6], the pH-dependent lipophilicity (logD) is recorded as 2.7. In data set [8], the hepatocyte CLint at 1 µM is 6.07 µL/min/1e6 cells.
